Results as given in publication PMC11726677, “Eradication of Therapy-Resistant Cancer Stem Cells by Novel Telmisartan Derivatives” (Journal of Medicinal Chemistry, 2024).

Tests used:
[1] = test system: DU145-DR cells (ABCB1+); assay: SP analysis (DCV, flow cytometry) in DU145-DR cells; type: cell-based, human; conditions: 10 μM
Excerpt: (§1) In recent studies, we described the side population (SP) phenotype as a marker that defines a heterogeneous cellular compartment with stem cell-characteristics in various cancer cell lines derived from solid tumors, such as ovarian cancer, breast cancer, and lung cancer.[26],[27]

[2] = Turbidimetric aqueous solubility; type: physicochemical; conditions: phosphate buffered saline, estimated precipitation range, PBS pH 7.4, 37 °C
[3] = test system: DU145-DR cells; assay: Chemosensitizing to docetaxel: metabolic activity of DU145-DR cells (MTT); type: cell-based, human; conditions: compound 10 μM + DTX 12.5 nM, 72 h
Procedure: (§2) The chemosensitizing efficacy was investigated in the ovarian and prostate cancer cell lines using the above-described metabolic activity assay. Paclitaxel (PTX) served as a reference (CTR) in A2780 V SP and IGROV-1 SP cells and docetaxel (DTX) in PC3-DR and D145-DR cells.
(§3) COS-7 (2 × 10^3 cells per well), IGROV-1 SP (2.5 × 10^3 cells per well), A2780 V SP (1.5 × 10^3 cells per well), PC3-DR (4 × 10^3 cells per well), and DU145-DR (3 × 10^3 cells per well) cells were seeded in 96-well plates in triplicates and after 24 h, the compounds were added at the respective concentrations. K562-R and K562 cells (2 × 10^4 cells per well), were treated with the compounds 2 h after seeding. […] A modified MTT colorimetric assay (EZ4U kit, Biomedica) was used to determine the metabolic activity of the tested cells, according to the manufacturer’s instructions. Absorbance was measured and the optical density of the respective FCS-containing medium and of the substrate was subtracted to exclude nonspecific staining. Metabolic activity in the absence of the compounds (CTR, DMSO) was set to 100% as reference.

[4] = test system: A2780 V SP cells (ABCB1+); assay: SP analysis (DCV, flow cytometry) in A2780 V SP cells; type: cell-based, human; conditions: 10 μM
Excerpt: as §1

[5] = test system: PC3-DR cells; assay: Chemosensitizing to docetaxel: metabolic activity of PC3-DR cells (MTT); type: cell-based, human; conditions: compound 10 μM + DTX 12.5 nM, 72 h
Procedure: as §2, §3

[6] = test system: primary human CML patient samples; assay: Colony forming cell (CFC) assay, primary CML patient samples; type: cell-based; conditions: together with 1 μM of imatinib, once at the beginning of the 14 day assay; compound 10 μM
Excerpt: Frozen peripheral blood mononuclear cells (PBMC) from TKI naïve CML patients and healthy controls were used for the CFC assay as described previously.[46] Briefly, thawed cells were resuspended a semisolid medium (Enriched MethocCult H4435, Stem Cell Technologies) supplemented with the respective compounds and cultured in small culture dishes for 2 weeks. Colonies were counted using an inverted microscope.

[7] = test system: A549 cells (ABCC1+); assay: SP analysis (DCV, flow cytometry) in A549 cells; type: cell-based, human; conditions: A549, 10 μM
Excerpt: as §1

[8] = Microsomal metabolic stability, mouse; type: in vitro ADME; conditions: for metabolic stability Mouse, % of compound remaining: after 30 min in MLM, 1 μM; for half-life at 1 µM: mouse, pooled mouse liver microsomes, pH 7.4, MLM, read-out: metabolic stability Mouse t1/2
Procedure: (§4) The stability of the compounds was assessed in pooled human and mouse liver microsomes (final protein concentration 0.5 mg/mL). […] At the appropriate time points, the reactions were stopped by transferring into acetonitrile. After protein precipitation, by centrifugation at 3000 rpm for 20 min at 4 °C, the sample supernatants were analyzed using LC–MS/MS analysis (control compounds were included). The elimination rate constant was determined from the ratio of the ln peak area to time. Half-life (t1/2) and intrinsic clearance (CLint) were calculated using the appropriate formulas.

[9] = test system: IGROV-1 SP cells (ABCB1+); assay: SP analysis (DCV, flow cytometry) in IGROV-1 SP cells; type: cell-based, human; conditions: 10 μM
Excerpt: as §1

[10] = Microsomal metabolic stability, human; type: in vitro ADME; conditions: for metabolic stability Human, % of compound remaining: after 30 min in HLM, 1 μM; for half-life at 1 µM: human, pooled human liver microsomes, pH 7.4, HLM, read-out: metabolic stability Human t1/2
Procedure: as §4

[11] = test system: K562-R cells; assay: Chemosensitizing: metabolic activity of K562-R cells cotreated with imatinib (modified MTT assay); type: cell-based, human; conditions: for chemosensitizing effect, concentration-dependent analysis: 0.5–8 μM (transporter inhibitors 10 to 0.5 μM); for rate of imatinib-triggered cell death: at 10 μM; for metabolic activity of K562-R cells, combination with imatinib: compound 10 μM + imatinib 1 μM
Procedure: (§5) The potential reduction in cell viability was determined using the modified MTT assay.
conc. 10 to 0.5 μM) over 72 h (Figure 3D).
as §3

[12] = Hepatocyte stability, mouse; type: in vitro ADME; conditions: for half-life at 1 h, 1 µM / hepatocyte CLint at 1 h, 1 µM: mouse, cryopreserved mouse hepatocytes; for half-life at 1 h, 1 µM: read-out: hepatocytic stability mouse t1/2; for hepatocyte CLint at 1 h, 1 µM: after 60 min in MH, read-out: hepatocytic stability mouse, CLint
Procedure: (§6) Cryopreserved hepatocytes (human and mouse) were used to analyze the stability of the compounds. Hepatocytes (0.5 × 10^6 cells/mL in Williams E medium supplemented with 2 mM L-glutamine and 25 mM N-2-hydroxyethylpiperazin-Ń-ethanesulfonic acid (HEPES)) were preincubated at 37 °C. […] At the appropriate time points, the reactions were stopped by transferring into acetonitrile. After protein precipitation by centrifugation at 3000 rpm for 20 min at 4 °C, the sample supernatants were analyzed by LC–MS/MS analysis (control compounds were included). The elimination rate constant was determined from the ratio of the ln peak area to time. Half-life (t1/2) and intrinsic clearance (CLint) were calculated using the appropriate formulas.

[13] = test system: PC3-DR cells (ABCB1+); assay: SP analysis (DCV, flow cytometry) in PC3-DR cells; type: cell-based, human; conditions: 10 μM
Excerpt: as §1

[14] = test system: MCF7 cells (ABCG2+); assay: SP analysis (DCV, flow cytometry) in MCF7 cells; type: cell-based, human; conditions: MCF7, 10 μM
Excerpt: as §1

[15] = test system: K562-R cells; assay: Metabolic activity of K562-R cells, compounds alone (modified MTT assay); type: cell-based, human; conditions: 10 μM, 72 h, without imatinib; vehicle control = 100%
Procedure: as §5
First, the compounds (10 μM) were applied alone to evaluate their effects per se.
as §3

[16] = Hepatocyte stability, human; type: in vitro ADME; conditions: for half-life at 1 h, 1 µM / hepatocyte CLint at 1 h, 1 µM: human, cryopreserved human hepatocytes; for half-life at 1 h, 1 µM: read-out: hepatocytic stability human t1/2; for hepatocyte CLint at 1 h, 1 µM: after 60 min in HH, read-out: hepatocytic stability human, CLint
Procedure: as §6

Row | Structure (SMILES) | effect on SP phenotype [1] | solubility at 2 h [2] | chemosensitizing to DTX (antimetabolic activity) [3] | effect on SP phenotype [4] | chemosensitizing to DTX (antimetabolic activity) [5] | number of colonies (CFC) [6] | effect on SP phenotype [7] | metabolic stability Mouse, % of compound remaining [8] | half-life at 1 µM [8] | effect on SP phenotype [9] | metabolic stability Human, % of compound remaining [10] | half-life at 1 µM [10] | chemosensitizing effect, concentration-dependent analysis ([11]; K562-R, + imatinib 1 μM, 72 h) | rate of imatinib-triggered cell death ([11]; K562-R) | metabolic activity of K562-R cells, combination with imatinib ([11]; 72 h) | half-life at 1 h, 1 µM ([12]; MH) | hepatocyte CLint at 1 h, 1 µM [12] | effect on SP phenotype [13] | effect on SP phenotype [14] | metabolic activity of K562-R cells, compound alone [15] | further results
1 | CCCc1nc2c(C)cc(-c3nc4ccccc4n3C)cc2n1Cc1ccc(-c2ccccc2C(=O)OC)cc1 [7b, Methyl 4′-((1,7′-dimethyl-2′-propyl-1H,3′H-[2,5′-bibenzo[d]imidazole]-3′-yl)methyl)-[1,1′-biphenyl]-2-carboxylate] | eliminated the SP phenotype | < 6.5 µM | produced the same effects as 5c and 6c | eliminated the SP phenotype | only marginally increased the antimetabolic activity of DTX | significantly reduced the number of colonies | eliminated the SP phenotype | 3% | 6 min | eliminated the SP phenotype | 26.3% | 16.2 min | strongly sensitized the cells to imatinib therapy | > 85% | 8–24% | 13.8 min | 101 µL/min/1e6 cells | eliminated the SP phenotype | eliminated the SP phenotype | inactive | half-life at 1 h, 1 µM ([16]; HH): 18.4 min; hepatocyte CLint at 1 h, 1 µM [16]: 75.2 µL/min/1e6 cells
2 | CCCc1nc2c(C)cc(-c3nc4ccccc4n3C)cc2n1Cc1ccc(-c2ccccc2C(N)=O)cc1 [7c, 4′-((1,7′-Dimethyl-2′-propyl-1H,3′H-[2,5′-bibenzo[d]imidazole]-3′-yl)methyl)-[1,1′-biphenyl]-2-carboxamide] | eliminated the SP phenotype | < 6.5 µM | most active chemosensitizer | eliminated the SP phenotype | most active chemosensitizer | significantly reduced the number of colonies | eliminated the SP phenotype | 13.3% | 8.8 min | eliminated the SP phenotype | 58.1% | 45.1 min | strongly sensitized the cells to imatinib therapy | > 85% | 8–24% | 44.9 min | 30.9 µL/min/1e6 cells | eliminated the SP phenotype | eliminated the SP phenotype | inactive | EC50 ([11]; K562-R, + imatinib 1 μM, 72 h, read-out: SC50 (drug concentration eliciting 50% of the maximum sensitizing effect)): 1850 nM; clearance class ([12]; MH): high clearance; clearance class ([16]; HH): medium clearance; half-life at 1 h, 1 µM ([16]; HH): 100 min; hepatocyte CLint at 1 h, 1 µM [16]: 13.8 µL/min/1e6 cells
